Source: paper PMC11375437, “Selective labelling of GBA2 in cells with fluorescent β-D-arabinofuranosyl cyclitol aziridines” (Chemical Science, 2024)

Target: T1, GBA2 (Homo sapiens, UniProt Q9HCG7)
T1 sequence (Q9HCG7 1-927): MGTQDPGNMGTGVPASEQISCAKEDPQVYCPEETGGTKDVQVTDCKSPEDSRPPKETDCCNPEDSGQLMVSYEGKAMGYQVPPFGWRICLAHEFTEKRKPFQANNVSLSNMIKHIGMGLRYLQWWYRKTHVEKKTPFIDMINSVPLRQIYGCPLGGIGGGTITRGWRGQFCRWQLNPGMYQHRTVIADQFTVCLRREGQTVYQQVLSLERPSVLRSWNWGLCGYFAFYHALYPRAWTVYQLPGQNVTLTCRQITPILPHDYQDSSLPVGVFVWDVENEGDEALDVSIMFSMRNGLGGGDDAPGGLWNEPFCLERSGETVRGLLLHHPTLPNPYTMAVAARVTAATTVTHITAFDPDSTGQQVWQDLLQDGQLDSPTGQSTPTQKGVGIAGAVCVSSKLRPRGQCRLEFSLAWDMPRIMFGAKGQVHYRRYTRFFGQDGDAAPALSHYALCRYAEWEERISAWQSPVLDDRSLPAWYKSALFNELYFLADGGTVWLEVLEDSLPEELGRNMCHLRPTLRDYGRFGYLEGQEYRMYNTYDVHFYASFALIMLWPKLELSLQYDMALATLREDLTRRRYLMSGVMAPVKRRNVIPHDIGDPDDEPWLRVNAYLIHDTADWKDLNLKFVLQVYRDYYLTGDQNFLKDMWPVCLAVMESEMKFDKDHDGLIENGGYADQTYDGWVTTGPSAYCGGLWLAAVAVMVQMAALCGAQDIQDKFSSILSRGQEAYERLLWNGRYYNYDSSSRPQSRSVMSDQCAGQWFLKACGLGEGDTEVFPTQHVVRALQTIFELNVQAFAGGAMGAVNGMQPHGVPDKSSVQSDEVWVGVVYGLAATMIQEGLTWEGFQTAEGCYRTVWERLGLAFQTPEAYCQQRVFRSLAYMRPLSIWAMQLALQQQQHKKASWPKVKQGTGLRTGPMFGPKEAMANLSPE
Experiment: Confocal microscopy of ABP 4 staining after inhibitor pre-treatment in GBA2 overexpressing cells
Type: cell-based
Design: expressed in transfected cells; host or cells: HEK293T GBA1/GBA2 KO (CRISPR/Cas9), GBA2 overexpressed
Settings: 16 h pre-treatment (21 100 nM, 22 500 nM), then ABP 4 50 nM 2 h; GBA2 OE HEK293T cells
Procedure: To confirm the specific staining of GBA2, cells overexpressing GBA2 were pre-treated with either the specific GBA1 inhibitor 21 [32] or the GBA1/GBA2 inhibitor 22.[36]
Figure S11. Confocal fluorescence microscopy of A) HEK293T wild-type (WT), GBA2 overexpression (OE) or GBA1/2 knock out (KO) + GBA2 overexpression (OE) cells. Cells were pre-treated with either DMSO, GBA1/GBA2 inhibitor 22 or GBA1 selective inhibitor 21, and afterwards incubated with β-D-Araf aziridine BODIPY-red ABP 4 (50 nM) for 2 h. Subsequently, cells were fixed and stained for GBA1 (Green) with an anti-GBA1 antibody. B) RAW264.7 cells pre-treated with either DMSO or GBA1/GBA2 inhibitor 22 and incubated β-D-Araf aziridine ABP 4 for (50 nM) for 2 h. […]
Figure S12. […] Competitive ABPP allow for the determination of apparent IC50 values by quantification of the fluorescence intensity of ABP 7 as described in experimental section. […]
2.12 Reactivity of β-D-Araf aziridines towards GBA2 orthologue in other species β-D-Araf aziridine ABP 3-5 or ABP 7 was incubated with homogenates of zebrafish (Danio rerio) larvae or mice brain for 1 h at 37 °C. […] The zebrafish homogenates were passed through a desalting column (in the same way as described for the irreversibility evaluation above) to remove interference from biological pigments when scanning at λEX 473 nm and λEM ≥ 510 nm for BODIPY green fluorescence. […]

CCCCCN1[C@@H]2[C@H](CO)[C@@H](O)[C@H](O)[C@@H](O)[C@@H]21 (stereo partly shown) [Inhibitor 22]
Effect of pre-treatment on ABP 4 staining of GBA2: completely abrogated
